The subject of data set [1] is normal human B cells. Description: B cell activation after brief exposure and washout (CD69). The class given is cell-based. The conditions noted are these: 1 hour exposure, washed three times, IgM F(ab')2 stimulation 18 hours. The protocol:
B cells were purified from blood from healthy donors by negative selecting using the RosetteSep Human B cell enrichment cocktail. […] After incubation for 1 hour at 37° C., cells were washed three times using an 8-fold dilution in growth media for each wash. Cells were then stimulated with 10 ug/ml of IgM F(ab′)2 for 18 hours at 37° C. Cells were then stained with anti-CD69-PE antibody and analyzed by flow cytometry using standard conditions.

The test system of data set [2] is mast cell degranulation. Description: Mouse passive cutaneous anaphylaxis model. The conditions noted are these: increasing doses, single oral dose. The class given is in vivo. The protocol:
(FIG. 4) Mice were sensitized with an intradermal injection of monoclonal anti-DNP-IgE in the back. […] After one hour, animals were challenged with an intravenous injection of DNP-BSA and Evans Blue dye. Mast cell degranulation leads to vascular permeability and the distribution of the dye into the skin of the back. The area of extravasation after 1 hour is measured.

The nature of data set [3]: Plasma concentrations in orally dosed rats. In kind it is in vivo, Male jugular vein cannulated rats. The conditions noted are these: rat, 8 mg/kg single dose by oral gavage, in combination. As to the method:
Male jugular vein cannulated rats were administered a single dose of all test compounds at 8 mg/kg each, in combination by oral gavage. Dose volumes were adjusted based on body weight data collected immediately prior to dosing. Blood samples were collected at 0.0833 (5 minutes), 0.333 (20 minutes), 1, 3, 6, 9, and 24 hours post-dosing from orally dosed rats. The samples were collected into plasma separator Microtainer tubes with anticoagulant (lithium heparin). Plasma samples were prepared by centrifugation (5 min at 5000×g), and at least 100 μL were transferred to storage tubes and stored frozen at −80° C. Plasma samples were thawed and 75 uL aliquots were transferred to centrifuge tubes to which 10 μL aliquots of internal standard solution (1 μg/mL) were added. The samples were not diluted with blank plasma prior to further processing. Soluble proteins were precipitated by the addition of 200 μL of acetonitrile, followed by centrifugation (20 min at 16,000×g). The samples were evaporated to dryness and reconstituted in 200 μL of water containing 0.2% formic acid and 10% methanol. All samples were loaded onto an autosampler maintained at 6° C. and evaluated for concentrations of test compounds using LC-MS/MS.

The test system of data set [4] is Ramos. Description: Sensitivity of Ramos cell line. In kind it is cell-based. An excerpt: To identify biomarkers that correlate with response to Compound 1, phosphorylation events in the BCR signal transduction pathway were investigated.
In data set [5] the test system is proteinuria. Description: Mouse MRL/lpr model of lupus. The class given is in vivo, MRL/lpr mice. The conditions noted are these: 3.125 mg/kg, 12.5 mg/kg, and 50 mg/kg orally once per day.
Data set [6] deals with Btk expressing B cell lymphoma cell lines. Briefly: Sensitivity of a panel of nine Btk expressing B cell lymphoma cell lines. As to conditions: two cell lines with low pERK levels. In kind it is cell-based. As to the method: After 72 hours, cell number was measured using Alamar Blue using manufacturer's protocol. A dilution series of untreated cells was run in parallel to verify that the Alamar Blue assay reliably reflected cell number and that growth conditions, were not limiting. […] GI50 values were confirmed in two or more separate experiments for each cell line.
A panel of nine Btk expressing B cell lymphoma cell lines was screened for basal pERK levels.

The test system of data set [7] is MDA-MB-453 xenograft. Description: MDA-MB-453 breast cancer xenograft. In kind it is in vivo, nude mice. The conditions noted are these: 50 mg/kg or 5 mg/kg daily, tumor volume (FIG. 8). An excerpt: An MDA-MB-453 breast cancer xenograft was implanted under the skin of a nude mouse. […] The volume of the tumor xenograft was monitored daily.
The target of data set [8] is Tec family kinases, including Btk, and Src family kinases. Briefly: In vitro profiling against a panel of greater than 100 kinases. In kind it is biochemical. The source says: By way of example only and in some embodiments, the observed potency, selectivity, and cell permeability of compounds such as Compound 2 are appropriate to incorporate these molecules into a Kinase-targeted, activity based probe that allows direct visualization of Kinase activity in intact cells. […] Without limiting the scope of the compositions and methods described herein, it is postulated that the structural basis for the selectivity is covalent modification of a non-catalytic cysteine residue (Cys 481 in Btk) that is conserved in the ATP binding pocket of the Tec family and several other kinases.

Data set [9] addresses BTK (Homo sapiens (Human), UniProt Q06187). Description: HotSpot kinase assay, BTK. In kind it is biochemical. As to conditions: Table 2; 1 uM ATP, one hour incubation with inhibitor.
Procedure: For enzyme inhibition assays, compounds were tested in range often concentrations from 10 uM to 0.0005 uM using purified enzymes and the Hotspot kinase assay. Reaction conditions were 1 uM ATP, one hour incubation with inhibitor, and kinase activity detected using 33-ATP phosphorylation of an appropriately selected peptide substrate.
The target of data set [10] is HER4 (Homo sapiens (Human), UniProt Q15303). Briefly: HotSpot kinase assay, HER4. The class given is biochemical. The conditions noted are these: Table 1, first of two rows printed HER4; 1 uM ATP.
HER4, sequence (Q15303 other isoform, or with tags, fused parts or gaps): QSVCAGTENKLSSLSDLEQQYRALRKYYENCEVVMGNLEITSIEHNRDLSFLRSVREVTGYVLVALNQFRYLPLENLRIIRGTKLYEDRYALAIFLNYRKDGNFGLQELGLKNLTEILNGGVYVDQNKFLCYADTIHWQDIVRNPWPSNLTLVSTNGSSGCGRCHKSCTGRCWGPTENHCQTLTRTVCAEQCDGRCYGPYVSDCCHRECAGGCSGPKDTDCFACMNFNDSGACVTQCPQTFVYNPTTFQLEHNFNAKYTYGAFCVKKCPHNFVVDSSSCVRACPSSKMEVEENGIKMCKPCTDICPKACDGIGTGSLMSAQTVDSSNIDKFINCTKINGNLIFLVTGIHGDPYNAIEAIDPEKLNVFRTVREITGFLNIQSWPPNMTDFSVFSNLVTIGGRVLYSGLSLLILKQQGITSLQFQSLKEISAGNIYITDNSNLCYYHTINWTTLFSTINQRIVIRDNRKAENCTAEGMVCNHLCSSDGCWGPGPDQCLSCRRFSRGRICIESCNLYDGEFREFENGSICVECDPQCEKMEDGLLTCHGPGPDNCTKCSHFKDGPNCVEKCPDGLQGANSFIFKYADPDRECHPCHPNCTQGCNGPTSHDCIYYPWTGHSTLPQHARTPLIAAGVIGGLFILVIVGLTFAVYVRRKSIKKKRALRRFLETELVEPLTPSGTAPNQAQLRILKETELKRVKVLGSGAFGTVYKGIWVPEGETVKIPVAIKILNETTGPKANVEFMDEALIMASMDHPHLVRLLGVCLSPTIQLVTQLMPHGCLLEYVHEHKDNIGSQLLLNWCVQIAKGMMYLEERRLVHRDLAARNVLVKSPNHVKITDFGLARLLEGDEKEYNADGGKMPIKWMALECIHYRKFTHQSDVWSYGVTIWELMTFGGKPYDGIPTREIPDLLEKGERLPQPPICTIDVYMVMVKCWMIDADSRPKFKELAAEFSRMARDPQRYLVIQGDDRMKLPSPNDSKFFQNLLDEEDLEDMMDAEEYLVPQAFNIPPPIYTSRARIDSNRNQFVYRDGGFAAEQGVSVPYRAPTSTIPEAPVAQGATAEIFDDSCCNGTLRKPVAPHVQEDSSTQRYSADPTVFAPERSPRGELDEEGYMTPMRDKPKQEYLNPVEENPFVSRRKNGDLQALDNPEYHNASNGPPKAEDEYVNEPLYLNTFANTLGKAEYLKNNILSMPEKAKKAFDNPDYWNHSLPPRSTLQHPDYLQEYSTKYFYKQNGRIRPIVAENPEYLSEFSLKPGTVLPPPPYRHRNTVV

BTK, sequence (Q06187 whole entry): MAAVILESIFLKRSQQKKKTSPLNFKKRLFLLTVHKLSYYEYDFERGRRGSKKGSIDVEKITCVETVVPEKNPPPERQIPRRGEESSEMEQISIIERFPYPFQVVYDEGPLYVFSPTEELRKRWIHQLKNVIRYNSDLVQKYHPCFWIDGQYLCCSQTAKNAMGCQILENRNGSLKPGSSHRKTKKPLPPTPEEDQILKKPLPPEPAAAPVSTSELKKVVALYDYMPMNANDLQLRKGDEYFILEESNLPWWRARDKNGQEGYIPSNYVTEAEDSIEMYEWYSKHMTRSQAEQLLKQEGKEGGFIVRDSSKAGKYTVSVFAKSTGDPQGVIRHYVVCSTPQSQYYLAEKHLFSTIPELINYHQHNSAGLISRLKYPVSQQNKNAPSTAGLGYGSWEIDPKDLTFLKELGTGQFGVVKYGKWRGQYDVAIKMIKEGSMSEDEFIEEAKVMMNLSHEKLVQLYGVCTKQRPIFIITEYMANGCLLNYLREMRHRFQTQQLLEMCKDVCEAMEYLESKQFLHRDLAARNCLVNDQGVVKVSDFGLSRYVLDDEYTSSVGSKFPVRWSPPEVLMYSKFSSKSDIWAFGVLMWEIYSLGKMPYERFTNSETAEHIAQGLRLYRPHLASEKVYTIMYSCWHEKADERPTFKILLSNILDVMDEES

In the case of `C=CC(=O)N1CCC[C@@H](n2nc(-c3ccc(Oc4ccccc4)cc3)c3c(N)ncnc32)C1` [Compound 1], the “inhibition of B cell activation” value in data set [1] is “sufficient to inhibit B cell activation”. For the same molecule, the “amount of Evans Blue release” value in data set [2] is “significantly decrease the amount of Evans Blue release”. The in vivo half-life entry in [3] is reported as “short half-life”. Further, the sensitivity to compound entry in data set [4] and in data set [6] was “resistant” each time. Besides, in data set [5], the proteinuria result is on record as “significantly reduced proteinuria”. The efficacy in xenograft entry in data set [7] is on record as “efficacy”.
With `CN(C)C/C=C/C(=O)N1CCC[C@@H](n2nc(-c3ccc(Oc4ccccc4)cc3)c3c(N)ncnc32)C1` [Compound 2], the kinase panel profile result in data set [8] is “highly potent and selective inhibitor of Tec family kinases”.
For `CN(C/C=C/C(=O)N1CCCC(n2nc(-c3ccc(Oc4ccccc4)cc3)c3c(N)ncnc32)C1)CCO` (centres unmarked) [Compound 3], the IC50 (commonly the concentration that gives 50% inhibition) in data set [9] is 0.021 µM.
`C=CC(=O)N[C@H]1CC[C@@H](n2nc(-c3ccc(Oc4ccccc4)cc3)c3c(N)ncnc32)CC1` [Compound 9]: in data set [10], the IC50 turned out to be 1.54 µM.
Regarding `CN(C)C/C=C/C(=O)N1CCC[C@H]1Cn1nc(-c2ccc(Oc3ccccc3)cc2)c2c(N)ncnc21` [Compound 12, (E)-1-((S)-2-((4-amino-3-(4-phenoxyphenyl)-1H-pyrazolo[3,4-d]pyrimidin-1-yl)methyl)pyrrolidin-1-yl)-4-(dimethylamino)but-2-en-1-one], in data set [3], the in vivo half-life entry is on record as “short half-life”.

The values above are taken from patent publication US9278100B2, “Inhibitors of bruton's tyrosine kinase for the treatment of solid tumors” (Pharmacyclics LLC, priority 2008, dated 2016).
